Assay results from ChEMBL document CHEMBL1201862, “PubChem BioAssay data set” (2004).
The source made the active and inactive calls.

Assays:
[1] = biological target: Heat shock protein HSP 90-alpha (Homo sapiens, UniProt P07900); assay type: functional, organism-based
[2] = biological target: Serine/threonine-protein phosphatase (Homo sapiens, UniProt Q9BPW0); experiment: Counterscreen for inhibitors of PP1: fluorescence-based biochemical high throughput dose response assay to identify inhibitors of Protein Phosphatase 5 (PP5). [Related pubchem assays: 2034 (Summary (PP5 inhibitors)), 1987 (PP5 inhibitors in singlate), 2235 (PP1 inhibitors in singlate)]
Sequence of Serine/threonine-protein phosphatase (Q9BPW0 whole entry): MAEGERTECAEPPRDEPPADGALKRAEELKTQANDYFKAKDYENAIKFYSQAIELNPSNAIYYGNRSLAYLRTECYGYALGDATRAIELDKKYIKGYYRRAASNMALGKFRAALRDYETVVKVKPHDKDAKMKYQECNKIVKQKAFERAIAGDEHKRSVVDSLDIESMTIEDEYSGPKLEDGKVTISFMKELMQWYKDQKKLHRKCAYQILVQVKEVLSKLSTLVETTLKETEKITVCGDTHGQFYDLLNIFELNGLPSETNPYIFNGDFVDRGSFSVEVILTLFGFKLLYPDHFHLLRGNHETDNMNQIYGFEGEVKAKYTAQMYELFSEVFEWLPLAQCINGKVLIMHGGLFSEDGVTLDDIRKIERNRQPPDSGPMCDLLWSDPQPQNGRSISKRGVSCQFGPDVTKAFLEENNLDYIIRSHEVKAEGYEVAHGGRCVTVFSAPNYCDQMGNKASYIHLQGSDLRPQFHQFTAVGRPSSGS

[3] = cAMP pathway inhibition in counterscreen cell line – TR-FRET cAMP detection, counter-screen for MC4R biased antagonist project, dose response (AID 602305); assay type: functional, cell-based;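 also: U2OS cells stimulated with forskolin near its EC80 as the cAMP inducer; potency is for inhibition of forskolin-stimulated cAMP signaling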
[4] = system: INS1; experiment: INS-1E survival protection against cytokine death – cell-based, luminescence, retest, dose response (AID 449756); assay type: functional; conditions: Rattus norvegicus;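 also: cell death triggered by IL-1 beta plus TNF-alpha plus IFN-gamma mixture; protective hits raise ATP signal compared with cytokine alone wells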
[5] = biological target: Melanocortin receptor 4 (Homo sapiens, UniProt P32245); experiment: inhibitors of MC4R cAMP signaling – cell-based, TR-FRET, biased antagonists, dose response (AID 602298); assay type: functional;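 also: antagonist potency against agonist-stimulated cAMP production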
Sequence of Melanocortin receptor 4 (P32245 whole entry): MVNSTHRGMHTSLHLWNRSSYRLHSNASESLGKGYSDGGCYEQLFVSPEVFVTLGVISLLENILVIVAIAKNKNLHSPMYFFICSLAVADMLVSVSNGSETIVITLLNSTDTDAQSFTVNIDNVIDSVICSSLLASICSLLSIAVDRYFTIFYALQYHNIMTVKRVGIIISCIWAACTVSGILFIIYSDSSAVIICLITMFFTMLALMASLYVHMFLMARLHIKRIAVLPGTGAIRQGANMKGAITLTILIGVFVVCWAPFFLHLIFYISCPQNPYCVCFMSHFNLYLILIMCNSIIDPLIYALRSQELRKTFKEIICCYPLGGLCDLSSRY

[6] = system: Vero; experiment: cells; assay type: functional; conditions: Chlorocebus sabaeus
[7] = biological target: T1, Protein skinhead-1 (Caenorhabditis elegans, UniProt P34707); assay type: functional
T1 sequence (P34707 whole entry): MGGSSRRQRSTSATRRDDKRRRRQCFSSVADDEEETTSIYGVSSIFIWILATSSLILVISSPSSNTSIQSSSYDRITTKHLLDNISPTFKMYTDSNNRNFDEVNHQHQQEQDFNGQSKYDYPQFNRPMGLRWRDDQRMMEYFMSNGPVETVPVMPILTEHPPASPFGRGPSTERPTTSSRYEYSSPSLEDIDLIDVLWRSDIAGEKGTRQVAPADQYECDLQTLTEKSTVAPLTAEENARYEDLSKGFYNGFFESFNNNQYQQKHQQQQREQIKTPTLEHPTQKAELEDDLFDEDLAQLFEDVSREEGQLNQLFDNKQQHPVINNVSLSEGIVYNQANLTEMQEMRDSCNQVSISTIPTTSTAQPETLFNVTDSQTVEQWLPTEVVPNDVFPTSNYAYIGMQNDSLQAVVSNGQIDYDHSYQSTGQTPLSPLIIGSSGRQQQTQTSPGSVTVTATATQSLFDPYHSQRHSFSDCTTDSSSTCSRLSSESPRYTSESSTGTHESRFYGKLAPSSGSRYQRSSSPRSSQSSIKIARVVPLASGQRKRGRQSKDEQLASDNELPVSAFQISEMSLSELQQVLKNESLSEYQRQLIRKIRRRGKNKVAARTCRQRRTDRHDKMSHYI

[8] = biological target: Serine/threonine-protein phosphatase PP1-alpha catalytic subunit (Homo sapiens, UniProt P62136); experiment: inhibition of protein phosphatase 1 activity – biochemical, fluorescence, dose response (AID 2403);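 also: phosphatase turnover of OMFP into fluorescent 3-O-methylfluorescein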
Sequence of Serine/threonine-protein phosphatase PP1-alpha catalytic subunit (P62136 whole entry): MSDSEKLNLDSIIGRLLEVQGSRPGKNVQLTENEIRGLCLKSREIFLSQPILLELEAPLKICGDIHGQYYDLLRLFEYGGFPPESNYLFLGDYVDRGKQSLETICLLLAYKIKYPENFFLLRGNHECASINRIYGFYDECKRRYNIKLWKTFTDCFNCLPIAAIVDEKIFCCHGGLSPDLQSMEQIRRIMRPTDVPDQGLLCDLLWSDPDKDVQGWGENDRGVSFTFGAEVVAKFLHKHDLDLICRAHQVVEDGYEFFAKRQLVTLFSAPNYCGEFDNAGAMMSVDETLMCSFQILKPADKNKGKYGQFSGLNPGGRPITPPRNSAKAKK

[9] = microbe, parasite or virus in culture; assay type: functional; conditions: Mycobacterium tuberculosis
[10] = biological target: T2, Oxysterols receptor LXR-beta (Homo sapiens, UniProt P55055); assay type: functional, cell-based;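 also: agonist activity at LXR measured by a cell-based luminescence readout across a dose range, run as a counterscreen for daf-12 agonists; HEK293 cells with Gal4-LXR fusion and GAL4-driven luciferase reporter; potency for activation of Gal4-LXR reporter so compounds are agonists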
T2 sequence (P55055 whole entry): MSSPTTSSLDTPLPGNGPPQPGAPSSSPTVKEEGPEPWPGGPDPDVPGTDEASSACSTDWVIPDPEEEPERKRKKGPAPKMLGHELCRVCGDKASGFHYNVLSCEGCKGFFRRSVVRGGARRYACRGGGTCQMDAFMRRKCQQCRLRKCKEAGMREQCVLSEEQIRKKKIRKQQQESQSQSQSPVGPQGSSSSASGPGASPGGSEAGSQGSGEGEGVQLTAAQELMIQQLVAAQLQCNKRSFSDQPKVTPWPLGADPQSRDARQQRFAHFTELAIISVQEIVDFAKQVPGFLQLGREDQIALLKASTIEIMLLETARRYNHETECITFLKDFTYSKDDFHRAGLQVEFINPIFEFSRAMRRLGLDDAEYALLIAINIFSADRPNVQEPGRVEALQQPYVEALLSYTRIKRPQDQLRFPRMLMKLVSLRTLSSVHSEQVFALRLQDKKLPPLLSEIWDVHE

[11] = biological target: T3, Protein Rev (Human immunodeficiency virus type 1 group M subtype B (isolate WMJ22)(HIV-1), UniProt P05866); experiment: inhibitors of Rev protein–RRE RNA complex – biochemical, protein-RNA interaction, dose response (AID 842); parameters: species or system Human immunodeficiency virus 1
T3 sequence (P05866 whole entry): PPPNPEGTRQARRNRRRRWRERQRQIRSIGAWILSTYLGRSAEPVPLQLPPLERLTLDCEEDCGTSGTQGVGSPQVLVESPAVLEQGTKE

[12] = cells; assay type: functional, cell-based
[13] = biological target: T4, Trace amine-associated receptor 1 (Homo sapiens, UniProt Q96RJ0); experiment: Counterscreen for agonists of the human trace amine associated receptor 1 (hTAAR1): Fluorescence-based cell-based high throughput dose response assay to identify hTAAR1 agonist that also desensitize TAAR1 receptor response.; assay type: functional
T4 sequence (Q96RJ0 whole entry): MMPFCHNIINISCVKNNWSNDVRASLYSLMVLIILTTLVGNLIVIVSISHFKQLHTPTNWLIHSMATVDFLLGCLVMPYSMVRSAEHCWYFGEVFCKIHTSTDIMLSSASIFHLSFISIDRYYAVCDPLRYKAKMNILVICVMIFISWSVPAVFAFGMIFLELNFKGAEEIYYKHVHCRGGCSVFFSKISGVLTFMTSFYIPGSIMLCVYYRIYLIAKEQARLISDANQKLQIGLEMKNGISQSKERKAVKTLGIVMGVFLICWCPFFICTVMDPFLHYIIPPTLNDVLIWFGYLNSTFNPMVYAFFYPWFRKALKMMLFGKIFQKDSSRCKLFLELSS

[14] = biological target: T5, Luciferin 4-monooxygenase (Photinus pyralis, UniProt P08659); experiment: inhibition of purified Photinus pyralis luciferase – biochemical, luminescence, dose response (AID 1891)
T5 sequence (P08659 whole entry): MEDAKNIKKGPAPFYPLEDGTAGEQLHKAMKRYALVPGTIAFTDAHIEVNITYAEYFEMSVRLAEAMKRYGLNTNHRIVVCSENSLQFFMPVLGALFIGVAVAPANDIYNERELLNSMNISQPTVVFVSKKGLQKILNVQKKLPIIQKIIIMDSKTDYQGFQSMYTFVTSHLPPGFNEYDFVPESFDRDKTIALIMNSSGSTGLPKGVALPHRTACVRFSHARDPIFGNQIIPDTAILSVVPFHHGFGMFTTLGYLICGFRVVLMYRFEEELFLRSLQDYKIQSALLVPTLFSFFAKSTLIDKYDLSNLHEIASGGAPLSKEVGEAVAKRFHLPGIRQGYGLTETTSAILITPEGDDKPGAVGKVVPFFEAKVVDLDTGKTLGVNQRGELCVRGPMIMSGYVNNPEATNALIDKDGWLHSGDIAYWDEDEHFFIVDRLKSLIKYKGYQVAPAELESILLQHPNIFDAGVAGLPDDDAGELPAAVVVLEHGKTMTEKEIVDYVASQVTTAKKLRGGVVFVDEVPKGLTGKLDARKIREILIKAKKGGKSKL

[15] = biological target: T4, Trace amine-associated receptor 1; experiment: Fluorescence-based cell-based high throughput dose response assay to identify agonists of the human trace amine associated receptor 1 (TAAR1).; assay type: functional
[16] = biological target: T5, Luciferin 4-monooxygenase; experiment: Counter Screen for Luciferase-based Assay Positives. [Related pubchem assays: 620, 618, 411 ]
[17] = cells; assay type: functional, cell-based; remark: listed apart in the source
[18] = system: HT-1080; experiment: HT1080 cell viability loss – fluorescence readout (AID 620); assay type: functional, cell-based; conditions: Homo sapiens
[19] = Luminescence Cell-Based Dose Confirmation HTS to Identify Inhibitors of Platelet Dense Granule Release. [Related pubchem assays: 1663 (Primary HTS), 1678 (Summary of Project)]; assay type: functional
[20] = system: Vero; experiment: Vero cell viability after compound exposure – synthesized analogs, set II, cytotoxicity control for West Nile virus antiviral project, SAR follow-up (AID 2402); assay type: functional; conditions: Chlorocebus sabaeus
[21] = A Cell Based Assay for the Identification of Probe candidate Compounds with Anti- Venezuelan Equine Encephalitis virus. [Related pubchem assays: 2409, 2419, 1621, 2238, 2405, 2024, 2065, 2402, 2414, 1635, 1650, 2244 ]; assay type: functional
[22] = system: Vero; experiment: Vero 76 cell viability after compound exposure – Vero 76 cells, synthesized analogs, cytotoxicity control for West Nile virus antiviral project, SAR follow-up (AID 2414); assay type: functional; conditions: Chlorocebus sabaeus
[23] = biological target: T6, Alkaline phosphatase, tissue-nonspecific isozyme (Homo sapiens, UniProt P05186)
T6 sequence (P05186 whole entry): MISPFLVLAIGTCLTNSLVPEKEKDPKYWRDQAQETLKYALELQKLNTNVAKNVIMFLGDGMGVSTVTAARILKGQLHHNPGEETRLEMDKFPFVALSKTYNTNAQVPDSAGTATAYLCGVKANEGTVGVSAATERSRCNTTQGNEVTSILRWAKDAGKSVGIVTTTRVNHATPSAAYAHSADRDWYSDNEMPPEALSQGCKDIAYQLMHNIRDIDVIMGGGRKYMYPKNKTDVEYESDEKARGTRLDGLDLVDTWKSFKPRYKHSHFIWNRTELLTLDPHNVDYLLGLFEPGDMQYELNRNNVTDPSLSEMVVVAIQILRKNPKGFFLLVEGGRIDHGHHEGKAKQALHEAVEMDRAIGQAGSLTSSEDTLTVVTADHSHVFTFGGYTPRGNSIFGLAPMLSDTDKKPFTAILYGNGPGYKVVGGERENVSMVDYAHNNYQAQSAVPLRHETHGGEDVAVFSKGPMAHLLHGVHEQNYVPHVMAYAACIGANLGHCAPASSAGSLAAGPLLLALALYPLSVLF

[24] = biological target: T7, Streptokinase A (Streptococcus pyogenes serotype M1, UniProt P10520); experiment: viability-normalized secreted streptokinase activity reduction – plasminogen activation absorbance, OD405, dose response (AID 1914); assay type: functional, Streptococcus pyogenes M1 GAS;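 also: secreted streptokinase activity via plasminogen activation per viability signal from cell pellet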
T7 sequence (P10520 whole entry): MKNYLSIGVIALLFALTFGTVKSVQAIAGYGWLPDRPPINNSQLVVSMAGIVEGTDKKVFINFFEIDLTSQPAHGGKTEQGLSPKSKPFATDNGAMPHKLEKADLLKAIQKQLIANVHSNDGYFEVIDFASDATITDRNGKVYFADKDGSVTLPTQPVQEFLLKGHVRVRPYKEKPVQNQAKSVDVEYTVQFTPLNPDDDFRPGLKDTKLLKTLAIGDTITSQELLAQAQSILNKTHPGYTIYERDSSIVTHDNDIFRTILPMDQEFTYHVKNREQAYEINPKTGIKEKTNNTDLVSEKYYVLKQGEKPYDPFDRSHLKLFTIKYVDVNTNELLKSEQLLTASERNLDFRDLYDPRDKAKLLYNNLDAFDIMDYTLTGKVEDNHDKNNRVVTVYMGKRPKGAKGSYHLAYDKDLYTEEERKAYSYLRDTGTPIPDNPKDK

[25] = system: Streptococcus; experiment: Luminescence Microorganism-Based Dose Response Follow up to Identify Compounds Cytotoxic to Streptococcus. [Related pubchem assays: 1677 (Project Summary), 1915, 1914, 1902 (Retest at Dose), 1900 (Counter Screen), 1662 (Primary HTS)]; assay type: functional, organism-based
[26] = system: Streptococcus sp. 'group A'; experiment: Streptococcus pyogenes SK(-)GAS viability under kanamycin – luminescence, BacTiterGlo, confirmation, counter-screen for streptokinase expression inhibitor project, dose response (AID 1900); assay type: functional, organism-based
[27] = system: Streptococcus; experiment: GAS UMAA2166 growth inhibition – luminescence, BacTiterGlo, counter-screen for streptokinase expression inhibitor project, dose response (AID 1915); assay type: functional, organism-based;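 also: potency for reduction of bacterial viability or growth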
[28] = alpha-synuclein stem-loop translation blockers – luminescence, H4 neuroglioblastoma cells, dose confirmation, confirmation (AID 2454); assay type: functional, cell-based;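 also: H4 neuroglioblastoma cells carrying an alpha-synuclein 5'UTR luciferase reporter; potency for inhibition of the luciferase signal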
[29] = alpha-synuclein stem-loop luciferase translation blockers – H4 neuroglioma cells, luminescence, confirmation (AID 1988); assay type: functional, cell-based
[30] = system: Jurkat; experiment: blockers of NF-kB activation in T cells – Jurkat, luciferase reporter, luminescence, B- and T-cell, dose response (AID 489004); assay type: functional, cell-based; conditions: Homo sapiens;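 also: NF-kB luciferase reporter Jurkat cells stimulated with PMA plus ionomycin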
[31] = HEK-293T viability loss, compound-treated – cell-based, uHTS hits, cytotoxicity control for B/T-cell NF-kB inhibitor project, dose response (AID 489019); assay type: functional;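 also: IC50 reflects cytotoxicity as loss of cell viability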
[32] = luciferase reporter signal suppression in cells – H4 neuroglioma cells, luminescence, dose response (AID 1990); assay type: functional, cell-based
[33] = Luminescence Cell-Based Dose Response HTS to Identify Inhibitors of 5'UTR Stem-Loop Driven Prion Protein mRNA Translation in H4 Neuroglioblastoma Cells. [Related pubchem assays: 1827 (Project Summary), 1813 (Primary HTS)]; assay type: functional
[34] = luciferase reporter signal reduction – luminescence, H4-C neuroglioblastoma cells, dose response (AID 2458); assay type: functional, cell-based;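 also: H4 neuroglioblastoma cells stably carrying a luciferase reporter gene fusion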
[35] = cells; assay type: functional, cell-based; remark: listed apart in the source
[36] = biological target: T8, Heat shock 70 kDa protein 1A (Homo sapiens, UniProt P0DMV8); experiment: small-molecule inhibition of Hsp70 – biochemical, TR-FRET (AID 786)
T8 sequence (P0DMV8 whole entry): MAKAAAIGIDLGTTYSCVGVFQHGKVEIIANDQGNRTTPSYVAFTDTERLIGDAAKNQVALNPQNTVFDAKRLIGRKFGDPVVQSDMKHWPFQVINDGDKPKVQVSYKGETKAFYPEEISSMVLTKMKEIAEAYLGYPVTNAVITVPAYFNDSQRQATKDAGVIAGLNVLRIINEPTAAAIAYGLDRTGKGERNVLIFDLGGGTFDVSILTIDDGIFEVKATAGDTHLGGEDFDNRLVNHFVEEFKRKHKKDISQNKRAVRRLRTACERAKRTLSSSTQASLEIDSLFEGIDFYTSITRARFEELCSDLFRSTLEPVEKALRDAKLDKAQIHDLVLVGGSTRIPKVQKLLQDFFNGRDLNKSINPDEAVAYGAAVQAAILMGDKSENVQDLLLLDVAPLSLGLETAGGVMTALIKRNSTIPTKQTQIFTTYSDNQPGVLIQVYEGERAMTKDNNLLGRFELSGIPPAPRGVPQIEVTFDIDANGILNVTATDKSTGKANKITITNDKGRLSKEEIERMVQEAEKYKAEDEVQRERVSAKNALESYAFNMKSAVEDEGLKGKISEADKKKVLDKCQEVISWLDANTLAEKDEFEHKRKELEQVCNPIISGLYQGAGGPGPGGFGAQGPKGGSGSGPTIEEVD

[37] = biological target: T8, Heat shock 70 kDa protein 1A; experiment: small molecules displacing fluorescent ligand from Hsp70 – biochemical, fluorescence polarization, primary screen (AID 583)

With `CC1=NOC(=O)/C1=C/c1ccc(-c2ccc(Cl)cc2)o1` the AC50 [1] was 2.08 µM (active), the IC50 [2] was > 67 µM (not active) and the IC50 [3] was 13.4 µM (inactive). For the same molecule, the AC50 [4] was 6.76 µM (active), the IC50 [5] was 8.05 µM (active) and the CC50 [6] was > 25 µM (active). The IC50 [7] was 62.2 µM (inactive), the IC50 [8] was 6.86 µM (active) and the CC50 [9] was > 40 µM (active).

For `Nc1nc(Nc2ccc(Cl)cc2)nc2ccccc12`, the EC50 [10] was > 67.5 µM (inactive), the IC50 [11] was > 79.4 µM (not active) and the IC50 [12] was > 29.9 µM (inactive). For the same molecule, the IC50 [13] was 9.98 µM (active), the EC50 [14] was 347 nM (active) and the EC50 [15] was 19.2 µM (inactive). The EC50 [16] was 1.8 µM (active), the EC50 [17] was > 29.9 µM (inactive) and the EC50 [18] was > 50 µM (not active). For the same molecule, the EC50 [19] was 2.37 µM (active).

For `C=CCN(C(=O)c1ccccc1Cl)c1nc(-c2ccc(OC)cc2)cs1`, the CC50 [20] was 11.1 µM (active), the IC50 [21] was 50.1 µM (active) and the CC50 [22] was 24 µM (active).

In the case of `CCOC(=O)CSc1nc2ccccc2c(=O)n1CCC(=O)NCCc1ccc(OC)c(OC)c1`, the EC50 [23] was > 100 µM (not active).

In the case of `O=[N+]([O-])c1ccc(Nc2nc(NCCO)nc(N3CCCC3)n2)cc1`, the EC50 [24] was 7.48 µM (active), the EC50 [25] was 54.3 µM (active) and the EC50 [26] was 6.68 µM (active). The EC50 [27] was > 150 µM (not active).

With `CC1CCc2c(sc(NC(=O)CSc3nc[nH]n3)c2C#N)C1` (configuration not stated) the EC50 [28] was 323 nM (active), the EC50 [29] was < 100 nM (active) and the IC50 [30] was 520 nM (active). The IC50 [31] was > 80 µM (inactive), the EC50 [32] was < 100 nM (active) and the EC50 [33] was < 100 nM (active). The EC50 [34] was 232 nM (active) and the EC50 [35] was 337 nM (active).

For `Cc1ccnc2c(N3C(=O)C4C5C=CC(C5)C4(C)C3=O)cccc12` (configuration not stated), the IC50 [36] was > 100 µM (not active) and the IC50 [37] was > 100 µM (not active).
